# From patent US9035054B2, “Dinitroxide-type biradical compounds optimized for dynamic nuclear polarization (DNP)” (Universite D'Aix-Marseille, priority 2009, dated 2015)
# Assay: Solubility in water
# Conditions: compared with TOTAPOL
substance,measurement,value
bis-TEMPO-bis-Ketal [bTbK],solubility in water,less good solubility in water
